No end group written: not given here.
System: rat model of acute myocardial infarction
Assay: Peptide 1 treatment for 1 day versus 3 days, cardiac function by transthoracic echocardiography in a rat model of acute myocardial infarction
Assay type: in vivo, male Sprague Dawley rats
Protocol: Myocardial infarction was induced in male Sprague Dawley rats. On day 0 rats were anaesthetized with a mixture of 2 to 2.2% isoflurane USP (Abbot Laboratories, Montreal Canada) in oxygen, and placed on a heating pad (set at 37° C.) to maintain body temperature. The animals were intubated and immediately ventilated with a mixture of 2 to 2.2% isoflurane USP (Abbot Laboratories, Montreal Canada) in oxygen by means of a positive-pressure rodent respirator (CWE model SAR-830/P) set at ≈10 mL/kg bodyweight at a frequency of 70-80 strokes/min. The pericardium was opened to expose the heart and a 5-0 wax coated braided silk suture (Sofsilk™) was placed around the left anterior descending (LAD) coronary artery, approximately 2-3 mm below the left atrium. The suture was briefly snared to verify the size and location of myocardial ischemia based on colour change and was then tied to produce a large anterolateral myocardial infarction (affecting around 45% of the LV). The suture was kept in place for 30 minutes (30 minutes of ischemia) followed by reperfusion. A group of rats receiving sham procedure was also included. […] Fourteen days after ischemia, cardiac function was assessed by transthoracic echocardiography (echocardiograph model Q9, ChisonMedical Imaging Co. connected to a Chison 12.0 MHz probe).

## AMVSEFLKQAWFIENEEQEYVQTLKSSKGGPGSAVSPYPTFNPSSDV (AMVSEFLKQAWFIENEEQEYVQTLKSSKGGPGSAVSPYPTFNPSSDV-NH2; ends and bridges not checked) [Peptide 1]
14 days post ischemia, tail vein, three daily dosages (0, 3, 6 h post reperfusion) for 1 day or 3 days, 10, 30 or 100 ug/kg
  improvement of cardiac output compared to vehicle treatment: 20-30%
At least three dosages, echocardiography 14 days after ischemia, vs vehicle
  long-term cardiac function: significantly improves long-term cardiac function

Source: patent publication US20260263555A1, “ANNEXIN A1 DELAYED DOSING” (Reso Ther Pharma A/S, priority 2023, published 2026)
